# Assay results taken from EPA's ToxRefDB 2.
# Legend:
# rat [1] = details: Subchronic dermal toxicity, sprague dawley, Topical, dose end: 91 day, group: systemic, systemic / in life observation / clinical signs / erythema + systemic / in life observation / clinical signs / scabbing + systemic / in life…
# rat [2] = details: Prenatal developmental toxicity study, sprague dawley, Oral, Gavage/Intubation, dose end: 15 GD
# rat [3] = details: Prenatal developmental toxicity study, other, Oral, Gavage/Intubation, dose end: 15 GD
# rat [4] = details: Prenatal developmental toxicity study, sprague dawley, Injection, Intramuscular, dose end: 13 GD, group: developmental
# rat [5] = details: Sub-acute repeat dose toxicity, sprague dawley, Oral, Gavage/Intubation, dose end: 14 day, group: systemic
# primate [6] = details: Sub-acute repeat dose toxicity; Oral; Gavage/Intubation; dose end: 15 day; group: systemic; systemic / in life observation / clinical signs / emesis
# primate [7] = details: Sub-acute repeat dose toxicity; Oral; Gavage/Intubation; dose end: 20 day; group: systemic; systemic / in life observation / clinical signs / emesis
# primate [8] = details: Sub-acute repeat dose toxicity, Oral, Gavage/Intubation, dose end: 14 day, group: systemic
# dog = details: Sub-acute repeat dose toxicity, beagle, Oral, Gavage/Intubation, dose end: 10 day, group: systemic
# rat [9] = details: Sub-acute repeat dose toxicity, sprague dawley, Oral, Gavage/Intubation, dose end: 14 day, group: systemic; remark: listed apart in the source
# [10] = group: developmental, systemic / in life observation / body weight / fetal weight
# [11] = group: maternal, systemic / in life observation / body weight / body weight
# [12] = group: maternal, systemic / in life observation / body weight / body weight + systemic / in life observation / clinical signs / body surface staining + …
# [13] = group: developmental, developmental / developmental malformation / bone / ossification sites + developmental / developmental malformation / bone / full …
# [14] = group: maternal, systemic / in life observation / body weight / body weight + systemic / in life observation / food consumption / food consumption + systemic…
# [15] = developmental / developmental malformation / mouth / jaw / cleft palate
# [16] = developmental / developmental malformation / mouth / jaw / cleft palate + systemic / in life observation / body weight / fetal weight
# [17] = systemic / clinical chemistry / albumin / albumin + systemic / clinical chemistry / globulins / globulins + systemic / clinical chemistry / …
# [18] = systemic / in life observation / clinical signs / salivation
# [19] = systemic / clinical chemistry / alanine aminotransferase (alt/sgpt) / alanine aminotransferase (alt/sgpt) + systemic / clinical chemistry / …
# [20] = systemic / in life observation / clinical signs / emesis + systemic / in life observation / clinical signs / reduced activity
# [21] = systemic / in life observation / clinical signs / emesis
# [22] = systemic / in life observation / clinical signs / emesis + systemic / in life observation / clinical signs / abnormal feces
# [23] = systemic / clinical chemistry / albumin / albumin + systemic / clinical chemistry / cholesterol / cholesterol + systemic / hematology / …
compound,measurement,setting,value
"Cc1cc(C)n(CO)n1 [(3,5-Dimethyl-1H-pyrazol-1-yl)methanol]",LEL,rat [1],50 mg/kg/day
same,LOAEL,rat [1],50 mg/kg/day
same,NEL,rat [1],< 50 mg/kg/day
same,NOAEL,rat [1],< 50 mg/kg/day
same,LEL,rat [2]; [10],400 mg/kg/day
same,LOAEL,rat [2]; [10],400 mg/kg/day
same,NEL,rat [2]; [10],200 mg/kg/day
same,NOAEL,rat [2]; [10],200 mg/kg/day
same,LOAEL,rat [2]; [11],100 mg/kg/day
same,NOAEL,rat [2]; [11],< 100 mg/kg/day
same,LEL,rat [2]; [12],100 mg/kg/day
same,NEL,rat [2]; [12],< 100 mg/kg/day
same,LEL,rat [3]; [13],150 mg/kg/day
same,LOAEL,rat [3]; [13],150 mg/kg/day
same,NEL,rat [3]; [13],75 mg/kg/day
same,NOAEL,rat [3]; [13],75 mg/kg/day
same,LOAEL,"rat [3]; group: maternal, systemic / in life observation / body weight / body weight + systemic / in life observation / food consumption / food consumption",150 mg/kg/day
same,LEL,rat [3]; [14],150 mg/kg/day
same,NEL,rat [3]; [14],75 mg/kg/day
same,NOAEL,rat [3]; [14],75 mg/kg/day
C[C@]12C=CC(=O)C=C1CC[C@H]1[C@@H]3C[C@@H](O)[C@](O)(C(=O)CO)[C@@]3(C)C[C@H](O)[C@@]12F [Triamcinolone],LEL,rat [4]; [15],10 mg/kg/day
same,NEL,rat [4]; [15],< 10 mg/kg/day
same,LOAEL,rat [4]; [16],> 40 mg/kg/day
same,NOAEL,rat [4]; [16],≥ 40 mg/kg/day
CC(C)(O)c1ccc(CNC(=O)c2cccnc2Oc2ccc3nonc3c2)cc1,LOAEL,rat [5]; [17],> 160 mg/kg/day
same,NOAEL,rat [5]; [17],≥ 160 mg/kg/day
same,LEL,rat [5]; [18],5 mg/kg/day
same,NEL,rat [5]; [18],< 5 mg/kg/day
same,LEL,primate [6],5 mg/kg/day
same,LOAEL,primate [6],> 50 mg/kg/day
same,NEL,primate [6],1 mg/kg/day
same,NOAEL,primate [6],≥ 50 mg/kg/day
same,LEL,primate [7],20 mg/kg/day
same,LOAEL,primate [7],> 300 mg/kg/day
same,NEL,primate [7],< 20 mg/kg/day
same,NOAEL,primate [7],≥ 300 mg/kg/day
same,LOAEL,primate [8]; [19],> 1000 mg/kg/day
same,NOAEL,primate [8]; [19],≥ 1000 mg/kg/day
same,LEL,primate [8]; [20],20 mg/kg/day
same,NEL,primate [8]; [20],< 20 mg/kg/day
same,LEL,dog; [21],10 mg/kg/day
same,NEL,dog; [21],< 10 mg/kg/day
same,LOAEL,dog; [22],> 250 mg/kg/day
same,NOAEL,dog; [22],≥ 250 mg/kg/day
same,LOAEL,rat [9]; [23],> 125 mg/kg/day
same,NEL,rat [9]; [23],5 mg/kg/day
same,NOAEL,rat [9]; [23],≥ 125 mg/kg/day
same,LEL,rat [9]; systemic / pathology microscopic / mesentery / inflammation,25 mg/kg/day
